{"source": "patent US10435375B2", "about": "“CXCR4 chemokine receptor modulators” (NORTHWESTERN UNIVERSITY, priority 2015, dated 2019)", "format_in_all_cases": "cell-based", "key": {"KT1 cells": {"tested_on": "KT1 cells", "experiment": "Cell viability assay measuring colony forming units of KT1 cells, with imatinib", "details": "combination with imatinib", "description": "FIG. 21. Cell viability assay measuring colony forming units of KT1 cells. Cells were treated with kinase inhibitor imatinib, the indicated CXCR4 agent, or a combination, at the indicated concentrations."}, "CXCR4": {"target": "CXCR4 (Homo sapiens, UniProt P61073)", "sequence (P61073 whole entry)": "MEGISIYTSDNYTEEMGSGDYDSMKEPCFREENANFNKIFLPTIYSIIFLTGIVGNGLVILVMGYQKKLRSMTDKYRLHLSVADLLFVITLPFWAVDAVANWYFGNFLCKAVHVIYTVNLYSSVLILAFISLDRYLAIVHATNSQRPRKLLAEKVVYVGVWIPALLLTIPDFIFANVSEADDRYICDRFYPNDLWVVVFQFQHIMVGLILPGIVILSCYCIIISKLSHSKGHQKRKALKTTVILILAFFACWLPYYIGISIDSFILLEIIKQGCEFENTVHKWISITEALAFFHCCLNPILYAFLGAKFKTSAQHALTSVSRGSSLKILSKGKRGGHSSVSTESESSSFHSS", "experiment": "Calcium imaging ((Ca)i mobilization) assay, fura-2, C8161 melanoma cells", "design": "human melanoma cell line C8161 was initially used, which expresses numerous human CXCR4 receptors; endogenous in cells; host or cells: C8161 human melanoma cells", "source_text": "The initial assay for examining the activity of different molecules was based on the fact that activation of CXCR4 receptors produces an increase in the intracellular free Ca^2+ concentration (Ca)i. This signal can easily be observed using a fluorescent Ca^2+ sensing dye such as fura-2. The quantitative nature of this assay makes it ideal for screening purposes. Moreover, the assay can also distinguish potential antagonists from potential agonists. The aggressive human melanoma cell line C8161 was initially used, which expresses numerous human CXCR4 receptors and produces strong (Ca)I signals when stimulated with SDF-1 (FIG. 3). In the assay, cells were usually stimulated twice with SDF-1. […] To test a drug, the compound in question was usually added prior to the second stimulation with SDF-1. At this point it was possible to observe whether the compound itself acted as an agonist by giving its own response or if it reduced the magnitude of the second response to SDF-1. […] Each of the four antagonists were then assayed at multiple concentrations to obtain a dose-response relationship and an estimated IC50. Antagonists NUCC-388, 397, 392, and 51420 had IC50 values of 0.3 μM, 3 μM, 1 μM, and 1 μM respectively."}, "[1]": {"tested_on": "cells from AML patient #2", "experiment": "Cell viability assay measuring colony forming units, cells from AML patient #2, with Ara-C", "details": "AML patient #2 cells; combination with Ara-C", "description": "FIG. 22. Cell viability assay measuring colony forming units of from AML patient #2. Cells were treated with cytotoxic agent Ara-C, the indicated CXCR4 agent, or a combination."}}}
{"smiles": "CCCn1nc(C(=O)N(C)C)c2c1CCC(NCc1ccc(F)cc1)C2", "note": "(stereo not drawn) [NUCC-0054121, 5-((4-Fluorobenzyl)amino)—N,N-dimethyl-1-propyl-4,5,6,7-tetrahydro-1H-indazole-3-carboxamide]", "values": [{"measurement": "effect on cell killing by imatinib (colony forming units)", "setting": "KT1 cells", "result": "enhanced the cell killing ability of imatinib"}, {"measurement": "compound's (Ca)i response in presence of CXCR4 antagonist AMD3100", "setting": "CXCR4; C8161 cells, AMD3100 1 μM where stated", "result": "inhibited by AMD3100"}, {"measurement": "own (Ca)i response (agonist effect)", "setting": "CXCR4; C8161 cells, compounds 10 μM where stated, SDF-1 100 nM", "result": "robust agonist activity"}, {"measurement": "Ca^2+ Assay", "setting": "CXCR4; Table 1, calcium imaging behavior", "result": "Agonist"}, {"measurement": "Pharmacology", "setting": "CXCR4; Table 2, agonist or antagonist", "result": "Agonist"}, {"measurement": "effect on cell killing by Ara-C (colony forming units)", "setting": "[1]", "result": "enhanced the cell killing ability of Ara-C"}]}
